Laboratory results from patent US20250170154A1 (GreenStone Biosciences, Inc., priority 2023, published 2025).
Like-named read-outs stand apart in the source and are kept apart here.

What was measured:
[1] = test system: mice with cerulein-induced acute edematous pancreatitis; experiment: Cerulein model of acute edematous pancreatitis; type: in vivo, mouse; conditions: 100 mg/Kg by gavage 30 minutes after first and fourth cerulein injections; initial findings
Procedure: Using the cerulein model, acute edematous pancreatitis was induced in two test groups of mice by eight hourly intraperitoneal injections of 50 μg/Kg cerulein, with control group mice receiving injections of physiological saline. Compound 2, at 100 mg/Kg, was administered to one of the cerulein groups by gavage 30 minutes after the first and fourth cerulein injections. Mice were sacrificed one hour after the last injection and tissues were collected for histological analysis. […] Recurrent acute pancreatitis (RAP) and chronic pancreatitis (CP) were induced by repetitive cerulein injections every third day over a span of 14 days (RAP) or 6 weeks (CP). Compound 2 was administered daily at 50 mg/Kg on the last 10 consecutive days for RAP and at 100 mg/Kg on the last 4 weeks for CP, with vehicle controls. Mice were sacrificed 1 day after the last cerulein injection and tissues were collected for histological analysis. In the CP model, the cerulein injections induced extensive acinar cell damage.

[2] = test system: chondrocyte pellets differentiated from human mesenchymal stem cells (MSCs); experiment: Mini-joint model, IL-1β inflamed chondrocyte pellets, PCR analysis; type: cell-based; conditions: up to 5 μM with 0.01 ng/mL IL-1β for 3 days
Procedure: In the mini-joint model, human mesenchymal stem cells (MSCs) were differentiated into chondrocytes in pellet culture over a period of 3 weeks. The chondrocyte pellets were then maintained in a medium containing 0.5 ng/mL of TGF-β for 1 week. Inflammation was induced by treating the pellets with 1 ng/mL of IL-1β for 1 day. Following this, the pellets were treated with compound 2 at up to 5 μM together with 0.01 ng/mL of IL-1β to sustain the inflammatory environment for 3 days. At the conclusion of the treatment, the pellets were collected for PCR analysis.

[3] = Approximate solubility in selected solvents by visual observation; type: physicochemical; conditions: thermodynamic from solid
Procedure: Solubility testing of compound 2 was carried out by adding 20 μL aliquots (to a maximum of 1 mL) of selected solvents (water, methanol, DCM, and THF) to about 5 mg samples of compound 2 at 25 C with vortexing and sonication; and the approximate solubility determined by visual observation. Similar testing was carried out at 50 C, using about 10 mg samples of compound 2.

[4] = Intestinal stability, mouse intestinal S9; type: in vitro ADME; conditions: intestinal S9 fraction
Procedure: The stability of compounds 1 and 2, and the control compound 7-hydroxycoumarin, were measured using human, rat, and mouse intestinal S9 fractions (Xenotech). Test compound working solutions were prepared by diluting 5 μL of 10 mM stock solutions in DMSO with 495 μL AN. S9 solutions were prepared by diluting the obtained S9 solutions to 1.0 mg/mL in 100 mM potassium phosphate buffer at pH 7.4 containing 10 mM D-saccharic acid-1,4-lactone. An Apricot automation workstation was used to add 100 μL/well of S9 solution to all reaction plates (Blank, T0, T5, T15, T30, T45, T60 and NCF60); 2 μL/well of compound working solutions were added to all 96-well reaction plates except the blank (T0, T5, T15, T30, T45, T60, and NCF60); 600 μL/well of stop solution (4° C. ACN containing 200 ng/mL tolbutamide and 200 ng/mL labetalol as internal standards) was added to the T0 reaction plate; all plates were pre-incubated at 37° C. for 10 minutes; a cofactor regenerating system (98 μL/well) was added, excluding the NCF60 plate which instead received 98 μL/well of 100 mM potassium phosphate buffer. All plates were then incubated at 37° C. To terminate reactions, 600 μL/well of stop solution was applied at specific end time points. After sealing and a 10-minute shaking, plates were centrifuged at 4000 rpm and 4° C. for 20 minutes. Concurrently, 300 μL/well of HPLC grade water was loaded onto eight new 96-well bioanalysis plates. Post-centrifugation, 100 μL supernatant from each reaction plate was transferred to its corresponding bioanalysis plate, shaken for 10 minutes, and then subjected to LC-MS/MS analysis (Shimadzu LC-40D LC system coupled to a Sciex Qtrap 6500 Plus mass spectrometer, using both positive and negative ion modes).

[5] = Pharmacokinetics in the rat, solid form (powder in mini-capsules); type: in vivo; conditions: rat, in vivo
Dp16 mice = experiment: Dp16 mouse model of Down syndrome challenged with poly(I:C); type: in vivo
Description: Waugh et al., “Triplication of the interferon receptor locus contributes to hallmarks of Down syndrome in a mouse model”, Nat. Genet., 55, 1034-1047 (2023), note that the B6.129S7-Dp(16Lipi-Zbtb21)1Yey/J mouse model of DS, sometimes referred to as the Dp16 mouse, carries a segmental duplication of mouse chromosome 16 causing triplication of ˜120 protein-coding genes orthologous to those on human chromosome 21, including the Ifnr cluster; and that Dp16 mice display key phenotypes of DS including hyperactive IFN signaling, a dysregulated antiviral response, increased prevalence of heart defects, developmental delays, cognitive impairments and craniofacial anomalies. The TLR3 agonist polyinosinic-polycytidylic acid, poly(I:C), is an innate immune stimulus known to trigger an IFN response. Three groups of Dp16 mice were dosed from day ˜7 through 10 by gavage at 10 mg/Kg, twice/day for the first 5 days and once/day thereafter, with vehicle (2 groups) or compound 2 in vehicle (1 group), and one of the vehicle groups and the compound 2 group were dosed by injection with poly(I:C) on day 7, while the other vehicle group was given a sham injection. Treatment with compound 2 ameliorated the increased expressions of cytokines, IFNα and […], TNF-α, IL-2, -5, -6, -10, and -12P70, and attenuated the inflammatory response, including ameliorating the skin thickening, induced by Poly(I:C) in these Dp16 mice. Transcriptome analysis of liver samples identified gene sets substantially dysregulated in the Dp16 mice and attenuated by treatment with compound 2; including signatures of increased cell proliferation (E2F targets and G2/M checkpoint), increased JAK/STAT and interferon signaling, and decreased fatty acid metabolism. The genistein phosphate derivatives of this invention are therefore expected to be useful for the treatment of subjects with Down syndrome.

Which results are given for `O=c1c(-c2ccc(O)cc2)coc2cc(OCOP(=O)(O)O)cc(O)c12` [Compound 2, ((5-Hydroxy-3-(4-hydroxyphenyl)-4-oxo-4H-chromen-7-yl)oxy)methyl dihydrogen phosphate]?
acute edematous pancreatitis marked by necrosis, inflammation and edema in the pancreas (histology) [1]: efficacious in reversing; COL2 expression [2]: increasing; MMP12 expression [2]: decreasing; TNF-α expression [2]: decreasing; chondrogenesis (expression of collagen A) [2]: promote; solubility ([3]; 25 °C, organic solvent or mixture, THF, both 25 and 50° C., read-out: solubility in THF): 125000 to 250000 µg/mL; solubility ([3]; 25 °C, organic solvent or mixture, methanol, both 25 and 50° C., read-out: solubility in methanol): > 250000 µg/mL; solubility ([3]; organic solvent or mixture, DCM, 25° C., read-out: solubility in DCM): < 5000 µg/mL; solubility ([3]; water, 25° C., approximate, visual observation, read-out: solubility in water): < 5000 µg/mL; solubility ([3]; water, 50° C., approximate, visual observation, read-out: solubility in water): ~5000 µg/mL; half-life at 1 µM ([4]; pH 7.4): 1.13 h; microsomal CLint at 1 µM ([4]; pH 7.4, read-out: intrinsic clearance rate): 20.3 µL/min/mg; half-life ([5]; male, SD, po): ~2 h; Tmax ([5]; male, SD, po, 100 mg/kg): ~0.167 h; decline of plasma concentration of dosed compound ([5]; 100 mg/kg): slower rapid decline in concentration than for solution dosing; inflammatory response induced by Poly(I:C) (Dp16 mice; 10 mg/Kg by gavage): attenuated; skin thickening induced by Poly(I:C) (Dp16 mice; 10 mg/Kg by gavage): ameliorating; increased expressions of cytokines, IFNα and […], TNF-α, IL-2, -5, -6, -10, and -12P70 (Dp16 mice; 10 mg/Kg by gavage, twice/day first 5 days then once/day, poly(I:C) injection): ameliorated; dysregulated liver gene sets (cell proliferation, JAK/STAT and interferon signaling, fatty acid metabolism) (Dp16 mice; transcriptome analysis of liver samples): attenuated
